Results from publication PMC2685978, “Evaluation of Wuchereria bancrofti GST as a Vaccine Candidate for Lymphatic Filariasis” (PLoS Neglected Tropical Diseases, 2009).

Biological target: T1, rWbGST (Wuchereria bancrofti, UniProt Q86LL8)
T1 construct: about 28 kDa with tag
T1 sequence (Q86LL8 1-208): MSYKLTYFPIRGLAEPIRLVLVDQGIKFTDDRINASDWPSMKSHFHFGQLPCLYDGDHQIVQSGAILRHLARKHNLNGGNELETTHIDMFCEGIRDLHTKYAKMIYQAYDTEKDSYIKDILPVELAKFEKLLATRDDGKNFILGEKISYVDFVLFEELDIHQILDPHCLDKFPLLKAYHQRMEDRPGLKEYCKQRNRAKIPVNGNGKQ
Test: spectrophotometric conjugation assay at […] nm
Type: biochemical
Details: 1.0 mM CDNB, 1.0 mM GSH, 100 mM phosphate, pH 6.5; only specific activity printed

O=[N+]([O-])c1ccc(Cl)c([N+](=O)[O-])c1 [CDNB, 1-chloro-2,4-dinitrobenzene]
spectrophotometric conjugation assay at 340 nm: GST enzyme activity was determined using CDNB and GSH substrates
